As usually defined, the CC50 is the concentration at which the toxic effect on the cells reaches its halfway point. A word on the AC50: it is the midpoint of the concentration-response curve, whichever way the signal moves.

Series [1] is described as follows: HEp-2 cell cytotoxicity, dose response, cytotoxicity control for RSV inhibitor project, HTS (AID 2410). Conditions: human respiratory syncytial virus. The series is classed as functional.
Series [2] can be described thus: inhibitors of intracellular T. cruzi replication, confirmation, NIH3T3 host cells, beta-gal luminescence (AID 2044).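 Also: intracellular parasites grown in NIH/3T3 mouse fibroblasts as host cells; luminescent beta-galactosidase reporter signal from transgenic T. cruzi replicating inside host cells; inhibitors lower the luminescence signal.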 In kind it is functional, cell-based.
Series [3] in a line: cytotoxicity toward NIH3T3 fibroblasts, dose response, counter-screen, cell-based, ATP luminescence, mouse fibroblasts (AID 2010).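 Also: cells exposed to compound for about 90 hours before reading.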 The series is classed as functional. A general note: Counterscreens check selectivity or assay interference.
Series [4] deals with Cytochrome P450 3A4 (Homo sapiens, UniProt P08684).
Cytochrome P450 3A4, sequence (P08684 whole entry): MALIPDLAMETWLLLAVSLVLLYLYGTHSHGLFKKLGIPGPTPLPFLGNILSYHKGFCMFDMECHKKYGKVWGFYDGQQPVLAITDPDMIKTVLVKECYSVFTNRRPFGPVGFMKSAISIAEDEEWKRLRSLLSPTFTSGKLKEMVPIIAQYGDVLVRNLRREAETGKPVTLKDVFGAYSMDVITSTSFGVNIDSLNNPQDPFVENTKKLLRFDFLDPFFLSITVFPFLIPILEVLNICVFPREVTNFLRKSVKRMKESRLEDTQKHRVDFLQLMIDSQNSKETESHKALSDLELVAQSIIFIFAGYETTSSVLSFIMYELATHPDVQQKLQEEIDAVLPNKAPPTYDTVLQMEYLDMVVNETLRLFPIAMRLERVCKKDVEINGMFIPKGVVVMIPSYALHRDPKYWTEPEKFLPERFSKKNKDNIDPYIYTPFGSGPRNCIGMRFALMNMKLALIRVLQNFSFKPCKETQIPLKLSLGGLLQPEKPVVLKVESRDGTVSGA
Series [5] deals with Cytochrome P450 2C19 (Homo sapiens, UniProt P33261). In words: Cytochrome panel assay with activity outcomes. Panel member name: p450-cyp2c19 Compounds with AC50 equal or less than 10 uM are considered active. In kind it is functional.
Cytochrome P450 2C19, sequence (P33261 whole entry): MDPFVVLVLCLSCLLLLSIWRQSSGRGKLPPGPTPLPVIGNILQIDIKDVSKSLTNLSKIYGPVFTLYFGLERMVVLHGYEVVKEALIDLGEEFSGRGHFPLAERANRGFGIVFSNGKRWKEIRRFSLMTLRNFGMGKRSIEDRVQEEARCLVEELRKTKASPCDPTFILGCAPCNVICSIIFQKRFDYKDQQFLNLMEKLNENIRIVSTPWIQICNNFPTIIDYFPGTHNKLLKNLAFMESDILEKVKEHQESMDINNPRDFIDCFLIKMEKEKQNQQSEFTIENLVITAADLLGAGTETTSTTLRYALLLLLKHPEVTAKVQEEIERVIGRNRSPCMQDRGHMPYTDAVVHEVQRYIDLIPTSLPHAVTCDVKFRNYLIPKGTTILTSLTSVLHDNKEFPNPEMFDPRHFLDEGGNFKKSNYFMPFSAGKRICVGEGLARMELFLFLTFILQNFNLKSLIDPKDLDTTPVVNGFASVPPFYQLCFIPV
For series [6], the target named is T1, Corticotropin-releasing factor receptor 2/Corticotropin-releasing factor-binding protein (Homo sapiens, UniProt P24387+Q13324).
T1 sequence (Q13324 whole entry): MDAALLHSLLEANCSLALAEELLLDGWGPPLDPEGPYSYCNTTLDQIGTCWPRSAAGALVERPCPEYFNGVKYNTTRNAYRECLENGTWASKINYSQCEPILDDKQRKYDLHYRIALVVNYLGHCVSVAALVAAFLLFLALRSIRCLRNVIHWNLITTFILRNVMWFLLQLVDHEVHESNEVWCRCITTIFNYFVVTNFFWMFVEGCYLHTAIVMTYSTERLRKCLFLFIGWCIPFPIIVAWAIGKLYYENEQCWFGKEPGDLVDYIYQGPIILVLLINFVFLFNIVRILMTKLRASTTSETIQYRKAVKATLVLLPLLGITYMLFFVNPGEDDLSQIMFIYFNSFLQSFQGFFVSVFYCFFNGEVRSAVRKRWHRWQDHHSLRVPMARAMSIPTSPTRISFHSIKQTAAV
T1 sequence (P24387 whole entry): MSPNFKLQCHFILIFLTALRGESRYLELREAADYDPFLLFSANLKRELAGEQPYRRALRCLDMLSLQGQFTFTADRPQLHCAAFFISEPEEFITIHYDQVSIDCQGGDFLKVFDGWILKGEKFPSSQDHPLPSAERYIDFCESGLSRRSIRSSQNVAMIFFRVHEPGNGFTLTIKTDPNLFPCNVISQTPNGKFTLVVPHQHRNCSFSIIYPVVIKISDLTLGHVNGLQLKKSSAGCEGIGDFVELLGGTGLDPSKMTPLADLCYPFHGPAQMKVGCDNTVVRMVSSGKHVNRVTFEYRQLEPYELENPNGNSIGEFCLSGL
In words: activators of CRF receptor 2 with binding protein – uHTS hits, confirmation (AID 602473). Conditions: read-out: EC50_Mean. In kind it is functional.

Series [7] deals with H4. In words: Luminescence Cell-Based Dose Response HTS to Identify Activators of 5'UTR Stem-Loop Driven Prion Protein mRNA Translation in H4 Neuroglioblastoma Cells. [Related pubchem assays: 1829 (Project Summary), 1814 (Primary HTS)]. In kind it is functional. The settings on record: Homo sapiens.
A short description of series [8]: Luminescence Cell-Based Dose Response HTS to Identify Activators of Luciferase Translation or Activity in H4 […] Cells. [Related pubchem assays: 1829 (Project Summary), 1814 (Primary HTS)]. The series is classed as functional.

Activity calls are given as the source filed them.

As to `CC(C)OC(=O)c1ccc(N2CCN(c3ccc(F)cc3)CC2)nc1`, in series [1], the CC50 was 14.8 µM (active).
Turning to `CCn1c(NCc2cc(Br)ccc2NS(=O)(=O)c2ccc(C)cc2)nc2ccccc21`, the EC50 is 2.61 µM (active) in series [2] and > 60 µM (not active) in series [3].
With `COC(=O)Nc1nc(-c2cc(Cl)ccc2Cl)cs1`, the EC50 was 0.572 µM (active) in series [2] and > 60 µM (not active) in series [3].
Turning to `CN(Cc1ccco1)c1nc(-c2ccccc2C(F)(F)F)nc2ccccc12`, the AC50 in series [4] is 12.6 µM (inconclusive).
On to `CCn1nc(NC(=O)COC)c2cc3cccc(C)c3nc21`, for which, in series [1], the cytotoxic concentration (CC50) is > 50 µM (active).
On to `COC(=O)c1ccc(NC(S)=Nc2ccccn2)cc1`, for which the CC50 in series [1] is 41.6 µM (active).
On to `CCCCCSc1nncc(O)n1`, for which, in series [5] (read-out: AC50), the AC50 is 39.8 µM (inconclusive).
Consider `Cc1c(CN2CCC(CO)(Cc3ccccc3)CC2)c2ccccc2n1C`, for which the EC50 in series [2] is 2.4 µM (active); in series [3], 9.85 µM (active).
As for `COc1ccccc1NC(=O)N(Cc1ccco1)Cc1cc2cc(C)cc(C)c2nc1O`, the CC50 in series [1] is 3.83 µM (active).
`CC1(C)CC(=O)C([C@H]2C3=C(CC(C)(C)CC3=O)Oc3ccccc32)C(=O)C1`: the AC50 in series [4] is 15.8 µM (inconclusive).
Still for that read-out and setting: the same measure for `CO[C@@H]1/C=C\O[C@]2(C)Oc3c(C)c(O)c4c(O)c(cc(O)c4c3C2=O)NC(=O)/C(C)=C\C=C/[C@H](C)[C@@H](O)[C@H](C)[C@H](O)[C@H](C)[C@H](OC(C)=O)[C@@H]1C`: 3.98 µM (inconclusive).
Turning to `CCn1nc(C)c(NC(=O)/C=C/c2ccc(OC)c(COc3ccc(Cl)cc3Br)c2)c1C`, the results for the EC50 in series [2] and in series [3] were 0.736 µM (active) and > 60 µM (not active), respectively.
Consider `COc1cc(SC)ccc1C(=O)NCCc1c[nH]c2ccccc12`, for which the CC50 in series [1] was 19.9 µM (active).
In the case of `CCN1CCc2c(C#N)c(NCc3ccccc3)nc(N(CC)CC)c2C1`, the EC50 was 0.426 µM (active) in series [2] and > 15 µM (not active) in series [3].
As to `Cn1c(=O)c(-c2cc(F)cc(F)c2)nc2cncnc21`, the AC50 in series [4] is 1.26 µM (inconclusive).
Regarding `N#C/C(=C/C=C/c1ccccc1)C(=O)Nc1ccccc1`, the EC50 was 8.82 µM (active) in series [2] and > 60 µM (not active) in series [3].
As for `C=C1CCC[C@]2(C)C[C@H]3OC(=O)C(CN(C)CC(OC)OC)[C@H]3CC12` (some centres undefined), in series [1], the CC50 is 11.4 µM (active).
As for `COc1ccc(C2C(C(=O)c3ccc4c(c3)CC(C)O4)=C(O)C(=O)N2CCN2CCOCC2)cc1` (centres undefined), the figures for the AC50 in series [4] and in series [5] were 28.2 µM (inconclusive) and “inconclusive”, respectively.
For `CCc1ccccc1OCC(=O)Nc1ccc2c(c1)OCCO2`, the CC50 in series [1] is 35.6 µM (active).
Turning to `Cc1noc(C)c1-c1nccc(N2CCOCC2)n1`, the concentration at half-maximal activity (AC50) in series [5] (read-out: AC50) was 10 µM (inconclusive).
With `Cc1ccn2cc(-c3cccc(NC(=O)c4cccs4)c3)nc2c1`, the CC50 in series [1] was 26.1 µM (active).
As to `Brc1ccc(C2=Nn3cnnc3SC2)cc1`, in series [1], the CC50 is 27.9 µM (active).
As for `CC(=O)Nc1ccc(-c2csc(NCCc3ccccc3)n2)cc1`, the half-maximal cytotoxic concentration (CC50) in series [1] was 41.3 µM (active).
Consider `COc1ccc(S(=O)(=O)N2CCCCCC2)cc1C(=O)N(C)Cc1ccc(Cl)cc1Cl`, for which, in series [6], the EC50 is 5 µM (active).
Take `Cc1ccccc1C(=O)Oc1ccc(Br)cc1C(=S)N1CCCC1`: the concentration at half-maximal activity (AC50) in series [4] is 8.91 µM (inconclusive).
With `CC(C)(C)c1ccc(OCC(=O)O)c(Cl)c1`, the AC50 entry in series [5] is listed as “inconclusive”.
Consider `Cc1nc(C(=O)NC2CCCCC2)sc1C1(C)CC(c2cccnc2)=NO1` (centres undefined), for which the values for the EC50 in series [2] and in series [3] were 1.3 µM (active) and > 60 µM (not active), respectively.
The matching figures for `COc1ccc2cc(CN(Cc3cccnc3)Cc3nnnn3Cc3ccccc3)c(O)nc2c1`: 0.554 µM (active) and > 60 µM (not active).
Turning to `CN1CCN(CCCNC(=O)c2ccc(CSCc3cccc(Cl)c3)o2)CC1`, the AC50 in series [4] is 22.4 µM (inconclusive).
For the compound `c1ccc2c[n+](Cc3ccnc4ccccc34)ccc2c1`, in series [4], the half-maximal activity concentration (AC50) is 1.26 µM (inconclusive).
Consider `O=C(NCCOc1ccccc1F)c1cccc(S(=O)(=O)N2CCN(c3ccccc3)CC2)c1`, for which, in series [1], the CC50 was 22.2 µM (active).
On to `CNc1ccnc(-c2ccccc2C)n1`, for which the AC50 was 15.8 µM (inconclusive) in series [4] and 31.6 µM (inconclusive) in series [5] (read-out: AC50).
For the compound `CC[C@@H]1OC(=O)[C@H](C)[C@H](O[C@@H]2C[C@](C)(OC)[C@H](O)[C@H](C)O2)[C@H](C)[C@H](O[C@@H]2O[C@@H](C)C[C@@H](N(C)C)[C@@H]2O)[C@](C)(O)C[C@H](C)C(=NOCOCCOC)[C@H](C)[C@H](O)[C@]1(C)O`, in series [4], the AC50 was 12.6 µM (inconclusive).
With `COc1ccc(F)cc1C(=O)C1CCCN(Cc2cnc(N3CCCC3)s2)C1` (centres undefined), the results for the EC50 in series [2] and in series [3] were 0.303 µM (active) and > 60 µM (not active), respectively.
Turning to `Cn1c(N)c(C(=O)Nc2ccc3ccccc3c2)sc1=S`, the EC50 in series [7] was 0.279 µM (active); in series [8], 0.117 µM (active).
Take `Cc1ccc(-c2csc3ncnc(NCCN4CCOCC4)c23)cc1`: the AC50 in series [4] was 1.12 µM (inconclusive).
Take `O=C(Nc1ccc(Br)cc1)c1c[nH]cn1`: the EC50 in series [7] was 28.8 µM (active); in series [8], 34.8 µM (active).
Turning to `C=CC[N+]1(CC#CCOC(c2ccccc2)c2ccccc2)CCOCC1.[Cl-]`, the AC50 entry in series [5] was “inconclusive”.
In the case of `O=C(Cn1cnc2ccccc21)NC(c1ccccc1)c1ccccc1`, the AC50 in series [5] (read-out: AC50) is 20 µM (inconclusive).
For `CCOC(=O)c1sc2nc3n(c(=O)c2c1C)CCC(C)CC3` (centres undefined), in series [1], the CC50 is 38.3 µM (active).
With `Cc1cc2c(cc1S(=O)(=O)CCC(=O)NC1CCCCC1C)OCC(=O)N2` (centres undefined), the EC50 in series [6] is > 53 µM (inactive).
Consider `O=[N+]([O-])c1ccc(S(=O)(=O)NCC(c2ccco2)N2CCc3ccccc3C2)cc1` (centres undefined), for which the figures for the EC50 in series [2] and in series [3] were 1.86 µM (active) and > 60 µM (not active), respectively.
Regarding `CC1CCN(C(=O)CSc2nc3ccccc3c(=O)n2Cc2ccc3c(c2)OCO3)CC1`, in series [1], the CC50 is 33.5 µM (active).
For `C[C@H]1O[C@@H](O[C@H]2CC[C@@]3(C)C(CC[C@]4(C)C3C=C[C@]35OC[C@@]6(CCC(C)(C)C[C@H]63)[C@@H](O)C[C@]54C)[C@]2(C)CO)[C@H](O)[C@@H](O[C@@H]2O[C@H](CO)[C@@H](O)[C@H](O)[C@H]2O)[C@H]1O` (some centres undefined), the EC50 in series [6] is 9.4 µM (active).
As to `CCOC(=O)c1cn(Cc2ccccc2)c(C(=O)OC(C)(C)C)c1O`, the EC50 in series [6] is 5.22 µM (active).
For `CCCCCCc1cc2cc(C(=N)NNC(=O)c3ccncc3)c(=O)oc2cc1O`, the EC50 in series [6] is 1.11 µM (active).
In the case of `O=[N+]([O-])c1ccccc1/C=C/C=N/Nc1ccc(S(=O)(=O)Nc2ccc(Cl)cc2)cc1[N+](=O)[O-]`, the EC50 was 1.35 µM (active) in series [2] and > 60 µM (not active) in series [3].
For the compound `O=C(NCCCN1CCOCC1)c1cc(C(=O)C2CC2)c[nH]1`, the AC50 in series [5] (read-out: AC50) is 3.98 µM (inconclusive).
Take `CCOc1cc(/C=N/NC(N)=S)cc(Br)c1OCc1ccccc1C`: the results for the EC50 in series [2] and in series [3] were 0.114 µM (active) and > 60 µM (inconclusive), respectively.
Turning to `CC(=O)c1cccc(/N=C/C2=C(O)OC3(CCCCC3)OC2=O)c1`, the AC50 is 35.5 µM (inconclusive) in series [4] and “inconclusive” in series [5].
On to `CCOc1nn(-c2ccccc2)c(O)c1/C=N/c1ccc(Cl)cc1`, for which the AC50 in series [4] is 20 µM (inconclusive).
Regarding `C[C@]12CCC3C(CCC4=C/C(=N/OCC(=O)NC(CCC(N)=O)C(=O)O)CC[C@@]43C)C1CCC2O` (some centres undefined), the 50% cytotoxic concentration (CC50) in series [1] was 22.6 µM (active).
